Tests used:
Type in all cases: in vivo
[1] = system: wild oat (Avena fatua); test: Test B postemergence; settings: for Oat, Wild plant response rating: 125 g ai/ha, scale 0 to 100 (0 no effect, 100 complete control); for Plant response rating, Oat, Wild: 500 g ai/ha, scale 0 to 100
Procedure, shortened: (§1)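 Scores reflect visual comparison with untreated controls, where 0 means no effect and 100 complete control. Plants stayed 13 to 15 days in the greenhouse after pre- or postemergence treatment with compounds carried in a non-phytotoxic solvent and surfactant.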

[2] = system: blackgrass (Alopecurus myosuroides); test: Test B postemergence; settings: for Blackgrass plant response rating: 125 g ai/ha, scale 0 to 100 (0 no effect, 100 complete control); for Plant response rating, Blackgrass: 500 g ai/ha, scale 0 to 100
Procedure, shortened: as §1

[3] = system: rice (Oryza sativa); test: Test B flooded paddy test; settings: Flood, 1000 g ai/ha; scale 0 to 100
Procedure, shortened: (§2)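 Plants were grown to the 2-leaf stage before treatment, then kept in a greenhouse for 13 to 15 days. Injury was rated visually against untreated controls on a 0 to 100 scale, where 0 is no effect and 100 is complete control.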

[4] = system: barnyardgrass (Echinochloa crus-galli); test: Test B flooded paddy test; settings: Flood, 1000 g ai/ha; scale 0 (no effect) to 100 (complete control)
Procedure, shortened: as §2

[5] = system: umbrella sedge (Cyperus difformis); test: Test B flooded paddy test; settings: Flood, 1000 g ai/ha; scale 0 to 100
Procedure, shortened: as §2

[6] = system: duck salad (Heteranthera limosa); test: Test B flooded paddy test; settings: Flood, 1000 g ai/ha; scale 0 to 100
Procedure, shortened: as §2

[7] = system: crabgrass (Digitaria sanguinalis); test: Test B pre/postemergence
Procedure, shortened: as §1

[8] = system: corn (Zea mays); test: Test B pre/postemergence
Procedure, shortened: as §1

[9] = system: lambsquarters (Chenopodium album); test: Test B pre/postemergence
Procedure, shortened: as §1

[10] = system: giant foxtail (Setaria faberii); test: Test B pre/postemergence
Procedure, shortened: as §1

[11] = system: barnyardgrass (Echinochloa crus-galli); test: Test B pre/postemergence
Procedure, shortened: as §1

[12] = system: pigweed (Amaranthus retroflexus); test: Test B pre/postemergence
Procedure, shortened: as §1

[13] = system: Surinam grass (Brachiaria decumbens); test: Test B pre/postemergence
Procedure, shortened: as §1

[14] = system: wheat (Triticum aestivum); test: Test B pre/postemergence
Procedure, shortened: as §1

[15] = system: cocklebur (Xanthium strumarium); test: Test B pre/postemergence
Procedure, shortened: as §1

[16] = system: morningglory (Ipomoea coccinea); test: Test B pre/postemergence
Procedure, shortened: as §1

[17] = system: velvetleaf (Abutilon theophrasti); test: Test B pre/postemergence
Procedure, shortened: as §1

[18] = Postemergence, 125 g ai/ha, scale 0 to 100 (0 no effect, 100 complete control)
[19] = Postemergence, 500 g ai/ha, scale 0 to 100
[20] = Preemergence, 125 g ai/ha, scale 0 to 100 (0 no effect, 100 complete control)
[21] = Preemergence, 500 g ai/ha, scale 0 to 100 (0 no effect, 100 complete control)

How did the “Oat, Wild plant response rating” value [1] turn out when `CCOC(=O)c1nc(-c2ccc(Cl)cc2)nc(N)c1Br` [Compound 37] was run?
The value was 0.

What about the “Plant response rating, Oat, Wild” value [1] of the same molecule?
Its value is 0.

And the “Blackgrass plant response rating” value [2]?
The value was 40.

What about the “Plant response rating, Blackgrass” value [2] of the same molecule?
The value was 60.

And the “Plant response rating, Rice” value [3]?
Its value is 0.

And the “Plant response rating, Barnyardgrass” value [4]?
The value was 20.

And the “Plant response rating, Sedge, Umbrella” value [5]?
Its value is 90.

And the “Plant response rating, Ducksalad” value [6]?
The value was 100.

What about the “Crabgrass plant response rating” value [7, 18] of the same molecule?
Its value is 60.

And the “Plant response rating, Crabgrass” value [7, 19]?
Its value is 80.

And the “Plant response rating, Crabgrass” value [7, 20]?
The value was 50.

What about the “Crabgrass plant response rating” value [7, 21] of the same molecule?
Its value is 90.

And the “Corn plant response rating” value [8, 18]?
The value was 0.

And the “Plant response rating, Corn” value [8, 19]?
Its value is 70.

What about the “Plant response rating, Corn” value [8, 20] of the same molecule?
Its value is 0.

And the “Corn plant response rating” value [8, 21]?
Its value is 10.

What about the “Lambsquarters plant response rating” value [9, 18] of the same molecule?
The value was 100.

And the “Plant response rating, Lambsquarters” value [9, 19]?
Its value is 100.

What about the “Plant response rating, Lambsquarters” value [9, 20] of the same molecule?
Its value is 100.

And the “Lambsquarters plant response rating” value [9, 21]?
Its value is 100.

And the “Foxtail, Giant plant response rating” value [10, 18]?
Its value is 10.

What about the “Plant response rating, Foxtail, Giant” value [10, 19] of the same molecule?
Its value is 60.

What about the “Plant response rating, Foxtail, Giant” value [10, 20] of the same molecule?
The value was 10.

What about the “Foxtail, Giant plant response rating” value [10, 21] of the same molecule?
The value was 60.

And the “Barnyardgrass plant response rating” value [11, 18]?
The value was 0.

And the “Plant response rating, Barnyardgrass” value [11, 19]?
Its value is 90.

What about the “Plant response rating, Barnyardgrass” value [11, 20] of the same molecule?
Its value is 10.

And the “Barnyardgrass plant response rating” value [11, 21]?
The value was 40.

What about the “Pigweed plant response rating” value [12, 18] of the same molecule?
The value was 100.

What about the “Plant response rating, Pigweed” value [12, 19] of the same molecule?
The value was 100.

What about the “Plant response rating, Pigweed” value [12, 20] of the same molecule?
Its value is 100.

And the “Pigweed plant response rating” value [12, 21]?
Its value is 100.

And the “Surinam Grass plant response rating” value [13, 18]?
The value was 20.

And the “Plant response rating, Surinam Grass” value [13, 19]?
Its value is 70.

What about the “Surinam Grass plant response rating” value [13, 21] of the same molecule?
Its value is 40.

And the “Wheat plant response rating” value [14, 18]?
The value was 0.

What about the “Plant response rating, Wheat” value [14, 19] of the same molecule?
The value was 60.

What about the “Plant response rating, Wheat” value [14, 20] of the same molecule?
The value was 30.

And the “Plant response rating, Wheat” value [14, 21]?
Its value is 60.

What about the “Cocklebur plant response rating” value [15, 18] of the same molecule?
Its value is 100.

And the “Plant response rating, Cocklebur” value [15, 19]?
The value was 100.

And the “Plant response rating, Cocklebur” value [15, 20]?
Its value is 20.

What about the “Cocklebur plant response rating” value [15, 21] of the same molecule?
Its value is 80.

What about the “Morningglory plant response rating” value [16, 18] of the same molecule?
The value was 90.

And the “Plant response rating, Morningglory” value [16, 19]?
Its value is 100.

And the “Plant response rating, Morningglory” value [16, 20]?
Its value is 10.

What about the “Morningglory plant response rating” value [16, 21] of the same molecule?
The value was 50.

What about the “Velvetleaf plant response rating” value [17, 18] of the same molecule?
The value was 80.

And the “Plant response rating, Velvetleaf” value [17, 19]?
The value was 100.

What about the “Plant response rating, Velvetleaf” value [17, 20] of the same molecule?
The value was 40.

What about the “Velvetleaf plant response rating” value [17, 21] of the same molecule?
The value was 80.

`CCOC(=O)c1nc(C2CC2)nc(N=CN(C)C)c1Br` [Compound 40] was tested. Which “Oat, Wild plant response rating” value [1] did it give?
The value was 40.

What about the “Plant response rating, Oat, Wild” value [1] of the same molecule?
The value was 60.

And the “Blackgrass plant response rating” value [2]?
Its value is 50.

And the “Plant response rating, Blackgrass” value [2]?
Its value is 60.

What about the “Plant response rating, Rice” value [3] of the same molecule?
Its value is 60.

What about the “Plant response rating, Barnyardgrass” value [4] of the same molecule?
Its value is 70.

What about the “Plant response rating, Sedge, Umbrella” value [5] of the same molecule?
Its value is 70.

What about the “Plant response rating, Ducksalad” value [6] of the same molecule?
Its value is 80.

And the “Crabgrass plant response rating” value [7, 18]?
The value was 0.

What about the “Plant response rating, Crabgrass” value [7, 19] of the same molecule?
Its value is 80.

What about the “Plant response rating, Crabgrass” value [7, 20] of the same molecule?
The value was 60.

What about the “Crabgrass plant response rating” value [7, 21] of the same molecule?
The value was 80.

And the “Corn plant response rating” value [8, 18]?
Its value is 0.

What about the “Plant response rating, Corn” value [8, 19] of the same molecule?
The value was 60.

What about the “Plant response rating, Corn” value [8, 20] of the same molecule?
The value was 0.

And the “Corn plant response rating” value [8, 21]?
The value was 50.

And the “Lambsquarters plant response rating” value [9, 18]?
Its value is 0.

What about the “Plant response rating, Lambsquarters” value [9, 19] of the same molecule?
The value was 100.

What about the “Plant response rating, Lambsquarters” value [9, 20] of the same molecule?
Its value is 100.

What about the “Lambsquarters plant response rating” value [9, 21] of the same molecule?
Its value is 100.

And the “Foxtail, Giant plant response rating” value [10, 18]?
Its value is 0.

And the “Plant response rating, Foxtail, Giant” value [10, 19]?
The value was 60.

And the “Plant response rating, Foxtail, Giant” value [10, 20]?
The value was 20.

And the “Foxtail, Giant plant response rating” value [10, 21]?
The value was 80.

And the “Barnyardgrass plant response rating” value [11, 18]?
Its value is 0.

And the “Plant response rating, Barnyardgrass” value [11, 19]?
Its value is 90.

What about the “Plant response rating, Barnyardgrass” value [11, 20] of the same molecule?
The value was 50.

And the “Barnyardgrass plant response rating” value [11, 21]?
The value was 90.

And the “Pigweed plant response rating” value [12, 18]?
Its value is 0.

What about the “Plant response rating, Pigweed” value [12, 19] of the same molecule?
Its value is 100.

And the “Plant response rating, Pigweed” value [12, 20]?
Its value is 90.

What about the “Pigweed plant response rating” value [12, 21] of the same molecule?
The value was 100.

And the “Surinam Grass plant response rating” value [13, 18]?
Its value is 0.

And the “Plant response rating, Surinam Grass” value [13, 19]?
The value was 70.

And the “Plant response rating, Surinam Grass” value [13, 20]?
The value was 50.

And the “Surinam Grass plant response rating” value [13, 21]?
The value was 70.

And the “Wheat plant response rating” value [14, 18]?
The value was 50.

And the “Plant response rating, Wheat” value [14, 19]?
Its value is 60.

And the “Plant response rating, Wheat” value [14, 20]?
The value was 40.

What about the “Plant response rating, Wheat” value [14, 21] of the same molecule?
Its value is 70.

What about the “Cocklebur plant response rating” value [15, 18] of the same molecule?
The value was 0.

And the “Plant response rating, Cocklebur” value [15, 19]?
Its value is 90.

And the “Plant response rating, Cocklebur” value [15, 20]?
Its value is 90.

And the “Cocklebur plant response rating” value [15, 21]?
Its value is 100.

What about the “Morningglory plant response rating” value [16, 18] of the same molecule?
Its value is 0.

And the “Plant response rating, Morningglory” value [16, 19]?
Its value is 100.

What about the “Plant response rating, Morningglory” value [16, 20] of the same molecule?
The value was 90.

What about the “Morningglory plant response rating” value [16, 21] of the same molecule?
The value was 100.

And the “Velvetleaf plant response rating” value [17, 18]?
The value was 0.

And the “Plant response rating, Velvetleaf” value [17, 19]?
The value was 90.

What about the “Plant response rating, Velvetleaf” value [17, 20] of the same molecule?
The value was 90.

And the “Velvetleaf plant response rating” value [17, 21]?
Its value is 90.

Reference: patent US8802597B2, “Herbicidal pyrimidines” (E I du Pont de Nemours and Company, priority 2003, dated 2014)
